Common to all, as to type: cell-based
One assay concerns Atg8 gene. In words: Anti-aging gene expression test in human fibroblasts (qPCR), Atg8 gene. Conditions: 25 μg synthesized peptide per 1 ml medium, human fibroblasts (CCD-966SK), 24 h, 37° C. As for the experimental part: (§1) In order to confirm the effect of each of the amino acid sequences on gene expression in cells, human fibroblasts (CCD-966SK) and individual synthesized peptides were co-cultured, and then, gene expression in the cells was analyzed. 6 types of synthesized peptides were respectively subjected to cell experiments. In addition, the amino acid sequences of 6 types of synthesized peptides were respectively SEQ ID NO: 1, SEQ ID NO: 2, SEQ ID NO: 3, SEQ ID NO: 4, SEQ ID NO: 5 and SEQ ID NO: 6. The sequence numbers SEQ ID NO: 1 to SEQ ID NO: 6 will be referred to as groups. […]
(§2) For peptide experiment groups (corresponding to Experiment group A to Experiment group F), according to a proportion of 25 μg of synthesized peptide per 1 ml of cell culture medium, the human fibroblasts were cultured for 24 h at 37° C. […] In addition, the primers firstly reacted by a green fluorescent dye of SYBR green dye (Applied Biosystem), and quantification of gene expression was performed by a 2-ΔΔCt method. It should be noted that the gene expression in the drawings was shown in relative fold, ratio or percentage, where standard deviations were calculated by an STDEV formula of Excel software, and statistically significant differences were analyzed by one-tailed student t-test in the Excel software. […]
On the technique in general: Quantitative PCR measures a nucleic acid by following its amplification.

Another assay relates to CCT2 gene. In words: Anti-aging gene expression test in human fibroblasts (qPCR), CCT2 gene. The conditions noted are these: 25 μg synthesized peptide per 1 ml medium, human fibroblasts (CCD-966SK), 24 h, 37° C. As for the experimental part:
as §1, §2

The next assay relates to CCT5 gene. In words: Anti-aging gene expression test in human fibroblasts (qPCR), CCT5 gene. The conditions noted are these: 25 μg synthesized peptide per 1 ml medium, human fibroblasts (CCD-966SK), 24 h, 37° C. As for the experimental part:
as §1, §2

The subject of a further assay is CCT6A gene. In words: Anti-aging gene expression test in human fibroblasts (qPCR), CCT6A gene. The conditions noted are these: 25 μg synthesized peptide per 1 ml medium, human fibroblasts (CCD-966SK), 24 h, 37° C. As to the method:
as §1, §2

The subject of a further assay is CCT7 gene. Kind of assay: Anti-aging gene expression test in human fibroblasts (qPCR), CCT7 gene. The conditions noted are these: 25 μg synthesized peptide per 1 ml medium, human fibroblasts (CCD-966SK), 24 h, 37° C. As for the experimental part:
as §1, §2

Another assay deals with CCT8 gene. In words: Anti-aging gene expression test in human fibroblasts (qPCR), CCT8 gene. The conditions noted are these: 25 μg synthesized peptide per 1 ml medium, human fibroblasts (CCD-966SK), 24 h, 37° C. As to the method: as §1, §2
For the next assay, the system named is Pink1 gene. In words: Anti-aging gene expression test in human fibroblasts (qPCR), Pink1 gene. The conditions noted are these: 25 μg synthesized peptide per 1 ml medium, human fibroblasts (CCD-966SK), 24 h, 37° C. As for the experimental part:
as §1, §2

The test system of another assay is SIRT1 gene. In words: Anti-aging gene expression test in human fibroblasts (qPCR), SIRT1 gene. The conditions noted are these: 25 μg synthesized peptide per 1 ml medium, human fibroblasts (CCD-966SK), 24 h, 37° C. As for the experimental part: as §1, §2
A further assay has as its system Ubl-5 gene. In words: Anti-aging gene expression test in human fibroblasts (qPCR), Ubl-5 gene. Conditions: 25 μg synthesized peptide per 1 ml medium, human fibroblasts (CCD-966SK), 24 h, 37° C. As for the experimental part:
as §1, §2

For assay [1], the system named is mitochondria activities of human fibroblasts (CCD-966SK). Kind of assay: Mitochondria activity test (JC-1 membrane potential, flow cytometry). The conditions noted are these: 24 h, 37° C. As for the experimental part:
Then, in order to confirm the effect of each of the amino acid sequences on mitochondria activities, human fibroblasts (CCD-966SK) and the individual peptides were co-cultured, and then, the mitochondrion activities was analyzed. 6 types of synthesized peptides were respectively subjected to mitochondria activity tests. In addition, the amino acid sequences of 6 types of synthesized peptides were respectively SEQ ID NO: 1, SEQ ID NO: 2, SEQ ID NO: 3, SEQ ID NO: 4, SEQ ID NO: 5 and SEQ ID NO: 6. The sequence numbers SEQ ID NO: 1 to SEQ ID NO: 6 will be referred to as groups.
For mitochondria activity tests, after human fibroblasts and samples to be tested (such as peptides or compositions) were co-cultured, then, co-cultured cells were treated by a mitochondria membrane potential detection kit (containing a JC-1 mitochondria coloring agent, purchased from BD). Mitochondria activity test groups were divided into 7 groups.
Firstly, each of the groups (Experiment group H to Experiment group M, and Control group) was co-cultured with 1×10^5 human fibroblasts in a cell culture plate containing 2 ml of cell culture medium (X-VIVO™ 10). Then, the samples to be tested for each of the group were added into corresponding culture plates according to Table 6, and were co-cultured with the human fibroblasts at 37° C. for 24 h. Control group was co-cultured for 24 h by a peptide-free culture medium under the same conditions.
Before the mitochondria activity test was performed, a JC-1 mitochondria coloring agent was prepared. Firstly, a 10× JC-1 buffer solution was preheated at 37° C., was then diluted into a 1× JC-1 buffer solution by a 1× phosphate buffer solution (PBS, purchased from Gibco), and was maintained at 37° C. after being uniformly mixed. 130 μl of dimethyl sulfoxide (DMSO) was added into a lyophilized JC-1 reagent to prepare a JC-1 stock solution. Then, the JC-1 stock solution was diluted 1000 folds by the 1× JC-1 buffer solution to prepare a JC-1 work solution.
After co-culture for 24 h, the cell culture medium in the culture plate was removed. The co-cultured cells were rinsed twice by PBS so as to remove the residual cell culture medium. The cells were trypsinized from the culture plate, and were collected into a 1.5 ml microcentrifuge tube to be centrifuged for 5 min at 400×g so as to form a primary supernatant and a primary cell precipitate. After the primary supernatant was removed, the primary cell precipitate was resuspended by PBS to form a primary cell solution. The primary cell solution was transferred into a 1.5 ml centrifuge tube to be centrifuged for 5 min at 400×g again so as to separate the primary cell solution into a secondary supernatant and a secondary cell precipitate. Then, after the secondary supernatant was removed, 100 μl of JC-1 work solution was added to the secondary cell precipitate and vortexed to form a secondary cell solution. The secondary cell solution was cultured in dark at a room temperature for 15 min.
After cultured dark, the secondary cell solution was centrifuged for 5 min at 400×g. […] Standard deviations of the results were calculated by an STDEV formula of Excel software, and statistically significant differences were analyzed by one-tailed student t-test in the Excel software. […]
A general note: A flow cytometer gives signals particle by particle.

Results on five sequences are retold here after patent US11471395B2, “Method for preventing aging with bioactive compound” (TCI CO., LTD., priority 2020, dated 2022).

On to “DKPLIPEGP (listed as Pangasius bocourti) [SEQ ID NO: 5, synthesized peptide of Basa skin; Titin, tandem duplicate 2]”, for which, in the assay with Atg8 gene, the “fold of upregulation of Atg8 gene expression vs Control group” value is 5.13 folds. Further, in the assay on CCT2 gene, the “fold of upregulation of CCT2 gene expression vs Control group” value is 5.86 folds. Moreover, the “fold of upregulation of CCT5 gene expression vs Control group” value in the assay on CCT5 gene is on record as 6.03 folds. Besides, the “fold of upregulation of CCT6A gene expression vs Control group” value with CCT6A gene is reported as 5.47 folds. In addition, in the assay on CCT7 gene, the “fold of upregulation of CCT7 gene expression vs Control group” value worked out at 7.92 folds. Moreover, in the assay on CCT8 gene, the “fold of upregulation of CCT8 gene expression vs Control group” value is reported as 6.88 folds. In the assay on Pink1 gene, the “fold of upregulation of Pink1 gene expression vs Control group” value was 5.85 folds. In addition, the “fold of upregulation of SIRT1 gene expression vs Control group” value in the assay with SIRT1 gene was found to be 6.62 folds. For the same sequence, in the assay with Ubl-5 gene, the “fold of upregulation of Ubl-5 gene expression vs Control group” value came out at 5.24 folds. Also, the “improvement of mitochondria activities as compared with Control group” value (“improvement … compared with Control group” below) in assay [1] (10 μg peptide in 2 ml medium) stood at 26.7%.

On to “GPLGPIGPPGLP (listed as Pangasius bocourti) [SEQ ID NO: 6, synthesized peptide of Basa skin; Procollagen, type V, alpha I]”, for which the “fold of upregulation of Atg8 gene expression vs Control group” value in the assay on Atg8 gene stood at 4.28 folds. The “fold of upregulation of CCT2 gene expression vs Control group” value in the assay on CCT2 gene was determined as 5.71 folds. Moreover, in the assay on CCT5 gene, the “fold of upregulation of CCT5 gene expression vs Control group” value stood at 6.76 folds. The “fold of upregulation of CCT6A gene expression vs Control group” value in the assay with CCT6A gene is 5.28 folds. Further, the “fold of upregulation of CCT7 gene expression vs Control group” value in the assay with CCT7 gene is on record as 7.89 folds. Also, the “fold of upregulation of CCT8 gene expression vs Control group” value with CCT8 gene is 6.43 folds. For the same sequence, the “fold of upregulation of Pink1 gene expression vs Control group” value in the assay with Pink1 gene is 6.42 folds. Moreover, in the assay on SIRT1 gene, the “fold of upregulation of SIRT1 gene expression vs Control group” value turned out to be 6.52 folds. Moreover, in the assay with Ubl-5 gene, the “fold of upregulation of Ubl-5 gene expression vs Control group” value was 5.16 folds. For the same sequence, the “improvement … compared with Control group” value in [1] (25 μg peptide in 2 ml medium) was determined as 68.9%.

For “NPGPHGQPGPPGP (listed as Pangasius bocourti) [SEQ ID NO: 4, synthesized peptide of Basa skin; Persistent plexus]”, the “improvement … compared with Control group” value in assay [1] (10 μg peptide in 2 ml medium) amounted to 32.9%.

“PGAPGSSGPKG (listed as Pangasius bocourti) [SEQ ID NO: 2, synthesized peptide of Basa skin; collagen, type XIV]”: the “improvement … compared with Control group” value in assay [1] (10 μg peptide in 2 ml medium) stood at 32.7%.

“VAEGAQGNIGPA (listed as Pangasius bocourti) [SEQ ID NO: 3, synthesized peptide of Basa skin; Kinesin family member 21B]”: the “improvement … compared with Control group” value in [1] (10 μg peptide in 2 ml medium) was 25.6%.
